The values below come from article PMC12845312, “Hydrazonylthiazole Derivatives as Dual EGFR and ALR2 Inhibitors: Design, Synthesis, and Comprehensive In Vitro and In Silico Evaluation for Potential Anticancer Activity” (Pharmaceuticals, 2025).

Read-outs that look alike come from different tables or passages of the source.

One assay deals with ALR2 (Homo sapiens, UniProt P15121). The experiment in a line: In vitro ALR2 inhibition assay (NADPH absorbance, DL-glyceraldehyde substrate). Type of assay: biochemical. The conditions noted are these: for Ki: ALR2, DL-glyceraldehyde substrate, mean ±SEM (n = 3). The procedure: The protocol followed earlier steady-state kinetic studies with minor adjustments. Measurements were performed at 37 °C in 10 mM sodium phosphate buffer (pH 7.4) in 1 mL quartz cuvettes (1 cm path length). Each reaction mixture contained 0.11 mM NADPH and DL-glyceraldehyde at final concentrations between 0.071 and 0.376 mM. Test compounds were introduced from DMSO stock solutions, and the total DMSO content was kept below 1% (v/v).
Prior to substrate addition, the enzyme and inhibitor were combined and left on ice for 1 min to allow initial complex formation. The reaction was initiated by adding DL-glyceraldehyde, and the decrease in absorbance at 340 nm (ε340 = 6.22 mM^−1 cm^−1) was recorded for 180 s using a calibrated UV-Vis instrument. […] All values represent the mean of triplicate determinations, and the entire experiment was repeated on three separate days (n = 3). Reaction rates were calculated from the linear segment of each kinetic trace.
For selected compounds, including compound 5, extended kinetic analyses were conducted by varying both substrate and inhibitor levels. The resulting Lineweaver-Burk plots (1/v vs. 1/[S]) were used to interpret the inhibition pattern (Figure 18). Secondary replots were used to extract KI values by linear regression. Data processing and curve fitting were performed in GraphPad Prism (v10.0), and kinetic parameters are expressed as mean ± SEM.

In another assay the test system is MCF-7 cells. The note with it: cited from earlier work.
The subject of another assay is A549 (NSCLC) cells. The experiment in a line: MTT cytotoxicity assay in A549 cells. The note with it: for reduction in A549 viability: 10 µM; for IC50: Homo sapiens, A549. It counts as cell-based. The procedure:
(§1) A549 (ATCC, Manassas, VA, USA) and MCF-7 (ATCC, VA, USA) cells were grown in Dulbecco’s Modified Eagle Medium (DMEM; Wako, Osaka, Japan) containing 10% fetal bovine serum (FBS; Equitech-Bio, Kerrville, TX, USA). Jurkat T-cells (ATCC, VA, USA) were maintained in RPMI-1640 medium (Wako Pure Chemical Industries, Osaka, Japan) supplemented with 10% FBS, while PBMCs (Precision Bioservices, Frederick, MD, USA) were expanded in the same medium supplemented with 10% human AB serum (Gemini, Woodland, CA, USA). Streptomycin was added to all culture media at a final concentration of 89 µg/mL (Meiji Seika Pharma, Tokyo, Japan). All cells were kept at 37 °C under humidified conditions with 5% CO2. For viability measurements, A549 and MCF-7 cells were seeded into 24-well plates, whereas PBMCs were dispensed into 96-well plates (Iwaki, Asahi Glass, Chiba, Japan) at initial densities of 4 × 10^4 cells/mL and 5 × 10^5 cells/mL, respectively. […] The DMSO content was kept constant at 1% in all wells. Cell viability was assessed using the MTT colorimetric assay (Dojindo, Kumamoto, Japan), following established procedures with minor protocol refinements previously reported in the literature.
(Tetrazolium dyes change colour on reduction, which living cells bring about.)

Assay [1] deals with MCF-7 (breast cancer) cells. Put plainly: MTT cytotoxicity assay in MCF-7 cells. Type of assay: cell-based. The note with it: for reduced viability in MCF-7 cells: 10 µM; for IC50: Homo sapiens, MCF7. As for the experimental part: as §1
The next assay deals with Jurkat leukemia cells. Put plainly: MTT cytotoxicity assay in Jurkat cells. It counts as cell-based. The note with it: Homo sapiens. The procedure:
(§2) A549 (ATCC, Manassas, VA, USA) and MCF-7 (ATCC, VA, USA) cells were grown in Dulbecco’s Modified Eagle Medium (DMEM; Wako, Osaka, Japan) containing 10% fetal bovine serum (FBS; Equitech-Bio, Kerrville, TX, USA). Jurkat T-cells (ATCC, VA, USA) were maintained in RPMI-1640 medium (Wako Pure Chemical Industries, Osaka, Japan) supplemented with 10% FBS, while PBMCs (Precision Bioservices, Frederick, MD, USA) were expanded in the same medium supplemented with 10% human AB serum (Gemini, Woodland, CA, USA). Streptomycin was added to all culture media at a final concentration of 89 µg/mL (Meiji Seika Pharma, Tokyo, Japan). All cells were kept at 37 °C under humidified conditions with 5% CO2. For viability measurements, A549 and MCF-7 cells were seeded into 24-well plates, whereas PBMCs were dispensed into 96-well plates (Iwaki, Asahi Glass, Chiba, Japan) at initial densities of 4 × 10^4 cells/mL and 5 × 10^5 cells/mL, respectively. […] Concentrated stock solutions were prepared in dimethyl sulfoxide (DMSO; Wako Pure Chemical Industries) and diluted with culture medium to final assay concentrations ranging from […]. The DMSO content was kept constant at 1% in all wells. Cell viability was assessed using the MTT colorimetric assay (Dojindo, Kumamoto, Japan), following established procedures with minor protocol refinements previously reported in the literature.

In assay [2] the test system is peripheral blood mononuclear cells (PBMCs). Put plainly: MTT cytotoxicity assay in PBMCs (selectivity). It counts as cell-based. The note with it: for SI (Selectivity Index): IC50 for PBMC/IC50 for Jurkat cell line; for IC50: PBMC, MTT assay. As for the experimental part:
as §2

In assay [3] the target is T1, EGFR (Homo sapiens, UniProt P00533).
T1 construct: purchased Promega V3831
Put plainly: EGFR kinase inhibition (Promega EGFR TK kit, ADP-Glo). It counts as biochemical. As for the experimental part: (§3) EGFR kinase activity was monitored using the Promega EGFR TK kit (Cat. No. V3831) at final test concentrations of 1 µM and 10 µM. HER-2 activity was assessed under analogous conditions using the Promega HER-2 TK kit (Cat. No. V9381) at 10 µM, in accordance with earlier studies. For each assay, the enzyme and its substrate were diluted in a mixture containing 95 µL of 2.5× kinase buffer and 15 µL of 100 µM ATP. Reactions were assembled in 384-well plates by dispensing 4 µL of each compound solution (0.1–100 µM) into wells containing 8 µL of the enzyme/ATP/substrate preparation. Plates were incubated for 1.5 h at room temperature, after which ADP formation, reflecting kinase turnover, was quantified using the ADP-Glo™ detection system (Promega, Madison, WI, USA). Luminescence was measured with an Infinite M1000 reader (Tecan, Grödig, Austria).
For orientation: ADP-Glo turns the ADP formed in a reaction into a luminescent signal.

Assay [4] deals with T1, EGFR. The conditions noted are these: read-out: EGFR inhibition IC50 (converted); cited from earlier work.
The test system of another assay is A549 cells. The experiment in a line: Apoptosis, Annexin V/ethidium homodimer staining. Type of assay: cell-based. The conditions noted are these: IC50 concentration, 24 h. The procedure:
After exposure, cells were detached using 0.05% trypsin, rinsed twice with 1× binding buffer, and prepared for fluorescence-based apoptotic assessment. The resulting pellet was suspended in a staining mixture consisting of 50 µL of 1× binding buffer, along with 4 µL each of FITC-Annexin V, ethidium homodimer III, and Hoechst 33342. The suspension was incubated for 20 min at room temperature in the dark to ensure proper labeling. Following staining, cells were washed again with binding buffer, fixed in 2% paraformaldehyde, and briefly rinsed with phosphate-buffered saline (PBS). Apoptotic and necrotic populations were visualized and recorded using a Biorevo BZ-9000 fluorescence microscope (Keyence, Osaka, Japan), following procedures adapted from previously reported workflows.

The target in a further assay is T2, HER-2 (Homo sapiens, UniProt P04626).
T2 construct: purchased Promega V9381
Put plainly: HER-2 kinase inhibition (Promega HER-2 TK kit, ADP-Glo). Type of assay: biochemical. As for the experimental part: as §3

T1 sequence (P00533 25-1210): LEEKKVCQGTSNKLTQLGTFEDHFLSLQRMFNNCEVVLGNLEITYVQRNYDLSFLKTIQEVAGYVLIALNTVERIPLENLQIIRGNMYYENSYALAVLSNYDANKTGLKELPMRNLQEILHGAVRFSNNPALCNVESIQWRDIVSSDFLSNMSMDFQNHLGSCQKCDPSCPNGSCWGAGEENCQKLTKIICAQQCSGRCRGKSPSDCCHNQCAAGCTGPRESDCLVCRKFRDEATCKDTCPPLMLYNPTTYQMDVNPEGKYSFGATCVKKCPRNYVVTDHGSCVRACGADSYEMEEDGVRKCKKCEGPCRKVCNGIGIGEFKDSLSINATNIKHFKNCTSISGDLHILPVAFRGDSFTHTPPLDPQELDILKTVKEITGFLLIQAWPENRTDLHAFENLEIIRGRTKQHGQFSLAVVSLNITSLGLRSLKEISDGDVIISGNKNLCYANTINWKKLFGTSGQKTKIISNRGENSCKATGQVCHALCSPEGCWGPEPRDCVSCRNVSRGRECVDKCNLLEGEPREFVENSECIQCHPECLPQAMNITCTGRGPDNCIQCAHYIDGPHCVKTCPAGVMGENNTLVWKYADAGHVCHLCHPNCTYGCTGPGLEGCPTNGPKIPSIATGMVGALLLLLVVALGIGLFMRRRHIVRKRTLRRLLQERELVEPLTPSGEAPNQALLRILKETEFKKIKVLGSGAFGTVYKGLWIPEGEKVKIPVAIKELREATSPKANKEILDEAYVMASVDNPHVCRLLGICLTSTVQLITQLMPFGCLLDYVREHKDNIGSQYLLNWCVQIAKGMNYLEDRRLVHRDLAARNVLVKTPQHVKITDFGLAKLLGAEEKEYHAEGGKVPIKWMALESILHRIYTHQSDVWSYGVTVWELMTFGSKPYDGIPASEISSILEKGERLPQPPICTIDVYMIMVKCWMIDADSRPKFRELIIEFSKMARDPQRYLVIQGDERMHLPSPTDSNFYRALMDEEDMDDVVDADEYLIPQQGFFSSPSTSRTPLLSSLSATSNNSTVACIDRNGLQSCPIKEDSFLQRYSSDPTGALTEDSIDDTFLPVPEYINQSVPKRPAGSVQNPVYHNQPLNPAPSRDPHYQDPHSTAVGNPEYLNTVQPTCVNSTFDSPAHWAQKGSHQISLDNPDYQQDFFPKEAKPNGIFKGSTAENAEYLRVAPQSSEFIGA
T2 sequence (P04626 23-1255): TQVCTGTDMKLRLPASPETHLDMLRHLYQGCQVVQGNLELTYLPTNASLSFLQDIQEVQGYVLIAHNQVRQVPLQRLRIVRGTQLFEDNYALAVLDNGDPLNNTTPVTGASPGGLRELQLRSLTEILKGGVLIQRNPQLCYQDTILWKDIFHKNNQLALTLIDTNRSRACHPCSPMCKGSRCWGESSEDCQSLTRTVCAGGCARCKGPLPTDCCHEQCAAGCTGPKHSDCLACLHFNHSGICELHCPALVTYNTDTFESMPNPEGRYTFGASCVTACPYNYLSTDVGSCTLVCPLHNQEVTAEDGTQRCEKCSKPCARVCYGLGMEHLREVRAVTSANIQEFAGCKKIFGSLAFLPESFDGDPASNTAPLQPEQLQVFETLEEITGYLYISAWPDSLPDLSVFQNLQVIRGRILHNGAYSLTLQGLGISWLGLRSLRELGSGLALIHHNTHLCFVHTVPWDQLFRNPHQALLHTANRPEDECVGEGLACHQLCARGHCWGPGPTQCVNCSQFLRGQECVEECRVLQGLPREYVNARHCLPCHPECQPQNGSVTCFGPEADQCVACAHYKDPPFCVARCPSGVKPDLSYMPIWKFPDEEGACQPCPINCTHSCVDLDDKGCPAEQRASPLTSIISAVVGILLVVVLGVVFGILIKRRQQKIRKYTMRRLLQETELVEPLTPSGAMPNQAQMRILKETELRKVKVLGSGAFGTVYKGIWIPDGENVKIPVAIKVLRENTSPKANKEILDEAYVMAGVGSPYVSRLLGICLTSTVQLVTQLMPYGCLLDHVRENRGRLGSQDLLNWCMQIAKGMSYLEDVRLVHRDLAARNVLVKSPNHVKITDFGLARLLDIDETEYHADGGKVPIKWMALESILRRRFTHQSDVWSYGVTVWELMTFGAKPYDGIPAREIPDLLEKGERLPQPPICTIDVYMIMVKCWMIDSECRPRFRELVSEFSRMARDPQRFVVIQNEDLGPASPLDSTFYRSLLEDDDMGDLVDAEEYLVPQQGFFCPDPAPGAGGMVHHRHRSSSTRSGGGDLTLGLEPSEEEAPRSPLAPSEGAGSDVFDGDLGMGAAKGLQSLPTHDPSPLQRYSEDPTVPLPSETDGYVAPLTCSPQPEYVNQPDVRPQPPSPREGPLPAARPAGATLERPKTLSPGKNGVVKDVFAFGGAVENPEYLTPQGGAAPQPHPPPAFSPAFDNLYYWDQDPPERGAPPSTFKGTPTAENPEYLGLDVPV

On ALR2, `Cn1ccnc1/C=N/Nc1nc(-c2ccccc2)cs1` [Compound 1, 1-[(4-Phenyl-1,3-thiazol-2-yl)amino]-2-[(1-methyl-1H-imidazol-2-yl)methylidene]hydrazine] yielded a Ki of 2640 ± 160 nM.
The compound `Cn1ccnc1/C=N/Nc1nc(-c2ccc([N+](=O)[O-])cc2)cs1` [Compound 2, 1-[(4-(4-Nitrophenyl)-1,3-thiazol-2-yl)amino]-2-[(1-methyl-1H-imidazol-2-yl)methylidene]hydrazine] gave an inhibitory constant (Ki) on ALR2 of 1830 ± 110 nM.
Turning to `Cn1ccnc1/C=N/Nc1nc(-c2ccc(F)cc2)cs1` [Compound 3, 1-[(4-(4-Fluorophenyl)-1,3-thiazol-2-yl)amino]-2-[(1-methyl-1H-imidazol-2-yl)methylidene]hydrazine], on ALR2, the Ki was determined as 440 ± 90 nM.
`Cn1ccnc1/C=N/Nc1nc(-c2ccc(Cl)cc2)cs1` [Compound 4, 1-[(4-(4-Chlorophenyl)-1,3-thiazol-2-yl)amino]-2-[(1-methyl-1H-imidazol-2-yl)methylidene]hydrazine] returned a Ki at ALR2 of 280 ± 30 nM.
For `Cn1c(-c2csc(NN=C3CCCC3)n2)nc2ccccc21` [Compound 4a], the IC50 in the assay on MCF-7 cells (read-out: IC50 against MCF-7 cells) was 6300 nM.
Take `Cn1ccnc1/C=N/Nc1nc(-c2ccc(Br)cc2)cs1` [Compound 5]: in the assay on A549 (NSCLC) cells, the “reduction in A549 viability” value is ~ 59% and 6870 ± 2100 nM corresponded to half-maximal inhibition (IC50). Also, in assay [1], the “reduced viability in MCF-7 cells” value is 67% and the IC50 stood at 2780 ± 2850 nM. For the same compound, in the assay with Jurkat leukemia cells, half-maximal inhibition (IC50) required 1940 ± 650 nM. Besides, in assay [2], the “SI (Selectivity Index)” value is listed as 37.39 and half-maximal inhibition (IC50) was put at 72500 ± 14000 nM. On EGFR [3], this compound yielded an inhibition at 1 µM of 23% and an inhibition at 10 µM of 51%. The compound further displayed an inhibition constant (Ki) at ALR2 of 80 ± 10 nM. Also, the “inhibition profile (Lineweaver–Burk)” value against ALR2 (toward DL-glyceraldehyde) is listed as “competitive inhibition profile”.
Turning to `C/C(=N\Nc1nc(C)c(/N=N/c2ccc(Cl)cc2)s1)c1cccs1` [Compound 5j], the results for the IC50 in the assay with MCF-7 cells (read-out: IC50 toward MCF-7 cells) and at EGFR [4] were 10900 nM and 82.8 nM, respectively.
For the compound `Cn1ccnc1/C=N/Nc1nc(-c2ccc(C#N)cc2)cs1` [Compound 6, 1-[(4-(4-Cyanophenyl)-1,3-thiazol-2-yl)amino]-2-[(1-methyl-1H-imidazol-2-yl)methylidene]hydrazine], the Ki on ALR2 was 210 ± 20 nM.
On to `CCOC(=O)c1s/c(=N/N=C(\C)c2ccc(Nc3ccnc4cc(Cl)ccc34)cc2)n(C)c1C` [Compound 6b], for which the IC50 is 5350 nM in the assay with MCF-7 cells (read-out: IC50 against MCF-7 cell line) and 18.9 nM on EGFR [4].
In turn, `Cc1ccc(-c2csc(N/N=C/c3nccn3C)n2)cc1` [Compound 7, 1-[(4-(4-Methylphenyl)-1,3-thiazol-2-yl)amino]-2-[(1-methyl-1H-imidazol-2-yl)methylidene]hydrazine] had a Ki on ALR2 of 280 ± 30 nM.
Compound `COc1ccc(-c2csc(N/N=C/c3nccn3C)n2)cc1` [Compound 8, 1-[(4-(4-Methoxyphenyl)-1,3-thiazol-2-yl)amino]-2-[(1-methyl-1H-imidazol-2-yl)methylidene]hydrazine] registered a Ki at ALR2 of 210 ± 20 nM.
Regarding `Cn1ccnc1/C=N/Nc1nc(-c2ccc(C(F)(F)F)cc2)cs1` [Compound 9, 1-[(4-(4-Trifluoromethylphenyl)-1,3-thiazol-2-yl)amino]-2-[(1-methyl-1H-imidazol-2-yl)methylidene]hydrazine], the affinity at ALR2 corresponds to a Ki of 910 ± 50 nM.
On ALR2, `Cn1ccnc1/C=N/Nc1nc(-c2ccc(S(C)(=O)=O)cc2)cs1` [Compound 10, 1-[(4-(4-Methylsulfonylphenyl)-1,3-thiazol-2-yl)amino]-2-[(1-methyl-1H-imidazol-2-yl)methylidene]hydrazine] had a Ki of 240 ± 20 nM.
`Cn1ccnc1/C=N/Nc1nc(-c2ccc3ccccc3c2)cs1` [Compound 11, 1-[(4-(Naphthalen-2-yl)-1,3-thiazol-2-yl)amino]-2-[(1-methyl-1H-imidazol-2-yl)methylidene]hydrazine]: at ALR2, the Ki is 1910 ± 100 nM.
Turning to `Cn1ccnc1/C=N/Nc1nc(-c2ccc3c(c2)OCO3)cs1` [Compound 12, 1-[(4-(Benzo[d][1,3]dioxol-5-yl)-1,3-thiazol-2-yl)amino]-2-[(1-methyl-1H-imidazol-2-yl)methylidene]hydrazine], the Ki at ALR2 turned out to be 2010 ± 100 nM.
Take `Cn1ccnc1/C=N/Nc1nc(-c2ccc(-c3cccs3)cc2)cs1` [Compound 13, 1-[(4-(4-(Thiophen-2-yl)phenyl)-1,3-thiazol-2-yl)amino]-2-[(1-methyl-1H-imidazol-2-yl)methylidene]hydrazine]: in the assay with A549 (NSCLC) cells, the “reduction in A549 viability” value was ~ 67% and the IC50 came to 1330 ± 410 nM. In assay [1], the “reduced viability in MCF-7 cells” value was 69% and the midpoint of inhibition, the IC50, lay at 1740 ± 380 nM. Half-maximal inhibition in the assay on Jurkat leukemia cells (IC50) required 1650 ± 400 nM. Also, in [2], the “SI (Selectivity Index)” value was 138.90 and the half-inhibitory concentration (IC50) was found to be 229000 ± 26200 nM. Further, in the assay on A549 cells, the apoptosis induction result is “triggered apoptosis in A549 cells significantly compared with lapatinib”. For the same compound, on EGFR [3], at 1 µM the inhibition was 45% and the inhibition at 10 µM was 74%. In addition, 10 µM produced 1.89% inhibition against HER-2. Moreover, on ALR2, the Ki was 2480 ± 140 nM.
Turning to `CS(=O)(=O)CCNCc1ccc(-c2ccc3ncnc(Nc4ccc(OCc5cccc(F)c5)c(Cl)c4)c3c2)o1` [Lapatinib, lapatinib, reference compound], the IC50 with A549 (NSCLC) cells stood at 18000 ± 5120 nM; in assay [1], 8430 ± 2850 nM; in the assay on Jurkat leukemia cells it was 1350 ± 410 nM; in assay [2] it was 9790 ± 2690 nM. For the same compound, the apoptosis induction result in the assay on A549 cells was “highly significant increases vs. untreated control”. The compound also displayed an inhibition at 10 µM at HER-2 of 93%.

The term Ki denotes the dissociation constant of the complex between target and ligand, obtained from inhibition or displacement. One may read the IC50 as the concentration that inhibits the measured activity by half. One may read the inhibition as the percentage by which the read-out fell short of the control. Low readings indicate a weak effect, high ones a strong effect.
